Measured values as given in PMC3636874, “An Antedrug of the CXCL12 Neutraligand Blocks Experimental Allergic Asthma without Systemic Effect in Mice” (The Journal of Biological Chemistry, 2013).
In brackets after ≈: the same amount, converted by molar mass. Like-named read-outs stand apart in the source and are kept apart here.

Legend:
[1] = Stability in mouse lung homogenate; format: in vitro ADME; settings: 37 °C; for half-life at 20 μM: mouse, mouse lung homogenate
Experimental: (§1) Solubility and stability studies were performed on a Gilson HPLC system with a photodiode array detector, an autosampler, and a Valco injector. Data acquisition and processing were performed with Trilution LC version 2.0 software. Measurements were carried out at 21 ± 1 °C. A 2.6-μm Kinetex column (50 × 4.6 mm) was used for stability studies in biological media, and a 5-μm Luna C18(2) column (50 × 4.6 mm) was used for solubility and chemical stability analysis. Both columns were purchased from Phenomenex. The injection volume was 20 μl, the mobile phase flow rate was 2 ml/min, and the following program was applied for the elution: 0–0.2 min, 0% B; 0.2–2.7 min, 0–100% B; 2.7–3.2 min, 100% B; 3.2–3.4 min, 100–0% B; 3.4–6.1 min, 0% B. Solvent B was HPLC grade acetonitrile (Sigma-Aldrich CHROMASOLV). The aqueous solvent contained 0.1% trifluoroacetic acid, and the detection wavelength was 365 nm.
Stability of chalcones was determined in mouse lung homogenate with or without HP-βCD 10% at 37 °C. Lung homogenate was prepared separately with a Fastprep® (Q-BIOgene, Illkirch, France) in PBS (one lung homogenized in 1 ml of buffer). For each compound, the incubation solutions, the sampling, and the extraction conditions were prepared as described under “Stability in Mouse Serum.”

[2] = Thermodynamic solubility (HPLC); format: physicochemical; settings: for solubility: phosphate-buffered saline, PBS pH 7.4, 21 °C, 24 h shaking (CN-chalcone 4: 2 h, estimate), read-out: solubility in saline buffer; for maximal concentration dissolved with HP-βCD: physiological solution with 10% HP-βCD, 21 °C (CN-chalcone 4: 2 h, estimate)
Experimental: as §1
Thermodynamic solubility was measured by dissolving the compounds up to saturation in a pH 7.4 phosphate-buffered saline (PBS) with the following composition: 137.5 mM NaCl, 2.7 mM KCl, 4.3 mM Na2HPO4, and 1.4 mM KH2PO4 supplemented or not with 10% hydroxypropyl-β-cyclodextrin (HP-βCD). Samples were shaken for 24 h at 21 ± 1 °C. Saturation was confirmed by the presence of undissolved powder. After ultracentrifugation, the concentration in the supernatant was measured by an HPLC procedure using a calibration curve established for each compound by diluting a 10 mM DMSO stock solution to adapted concentrations. Due to rapid degradation of CN-chalcone 4, solubility was determined after 2 h of shaking. The indicated value given for CN-chalcone 4 is thus an estimate of the solubility.

[3] = test system: inflammatory cell recruitment in the airways of OVA-sensitized and challenged BALB/c mice; assay: 8-day murine model of airway hypereosinophilia (OVA sensitization and challenge), cell counts in BALF; format: in vivo, mouse; settings: for effect on eosinophil / inflammatory cell recruitment in BALF after OVA challenge, intranasal: intranasal 300 nmol/kg in 10% HP-βCD, 2 h before each challenge; for inhibition of eosinophil counts in BALF: intranasal, 300–500 nmol/kg in 10% HP-βCD, 2 h before each OVA challenge; for effect on inflammatory cell counts in BALF after OVA challenge, intraperitoneal in HP-βCD: twice daily 20 μmol/kg in 10% HP-βCD, 3 days; for effect on airway inflammation (BALF cell recruitment) after OVA challenge, intraperitoneal in carboxymethylcellulose: up to 350 μmol/kg once a day for 3 days in 1% carboxymethylcellulose
Experimental: The in vivo activity of the compounds was assessed in an 8-day model of hypereosinophilia created by immunization and challenge to ovalbumin in mice. Briefly, 9-week-old male BALB/c mice were sensitized by intraperitoneal injection of a mixture of 50 μg of ovalbumin (OVA, grade V; Sigma-Aldrich) adsorbed on aluminum hydroxide (2 mg; Sigma-Aldrich) in 0.1 ml of saline on days 0, 1, and 2. Mice were challenged intranasally with 10 μg of OVA in 25 μl of saline (12.5 μl/nostril) on days 5, 6, and 7. Control mice received intraperitoneal and intranasal administrations of saline alone. Intranasal administrations were performed under anesthesia with 50 mg/kg ketamine and 3.33 mg/kg xylazine given intraperitoneally. Food and water were supplied ad libitum. Animal experimentation was conducted with the approval of the government body that regulates animal research in France. The chalcone compounds were administered either by the intraperitoneal or intranasal routes. In a first set of experiments, mice received either chalcone 4 or carbonitrile-chalcone 4 solubilized in PBS with 10% HP-βCD (C0926, Sigma) by intranasal injection 2 h before each nasal OVA or saline challenge. In a second set of experiments, mice received CN-chalcone 4, vanillin, or parachlorobenzoylacetonitrile intranasally, in PBS with HP-βCD 10%, 2 h before each OVA or saline challenge. In the last set of experiments, mice received chalcone 4 or CN-chalcone 4 in suspension in carboxymethylcellulose 1% or solubilized in PBS with HP-βCD 10% and administered by intraperitoneal injection 2 h before each OVA or saline challenge. Collection of bronchoalveolar lavage fluid (BALF) was performed 24 h after the last OVA challenge. Mice were deeply anesthetized by intraperitoneal injection of 150 mg/kg ketamine and 10 mg/kg xylazine. A plastic canula was inserted into the trachea, and airways were lavaged by 10 instillations of 0.5 ml of ice-cold saline supplemented with 2.6 mM EDTA (saline-EDTA). Total and differential cell counts in the BALF were performed after centrifugation (300 × g for 5 min at 4 °C) to pellet cells. Erythrocytes were lysed by hypotonic shock by the addition of 1.5 ml of distilled H2O, followed by the addition of 0.5 ml of 0.6 M KCl. Cells were centrifuged and resuspended in 500 μl of ice-cold saline-EDTA, and total cell counts were determined using a hemocytometer (Neubauer's chamber). Differential cell counts were assessed on cytologic preparation obtained by cytocentrifugation (Cytospin 3, Shandon Ltd.) of 200 μl of diluted BALF (250,000 cells/ml in ice-cold saline-EDTA). Slides were stained with Hemacolor (Merck), and counts were performed on at least 400 cells for each preparation. Differential counts were expressed as absolute numbers or as a percentage of the total number of cells.
The in vivo activity of CN-chalcone 4 was assayed in a recently developed 8-day mouse model of airway hypereosinophilia ([24]). In this model, mice are sensitized by intraperitoneal injection of OVA (50 μg) adsorbed on 2 mg of aluminum hydroxide in 0.1 ml of saline on days 0, 1, and 2. Mice are then challenged intranasally with 10 μg of OVA in 25 μl of saline (12.5 μl/nostril) on days 5, 6, and 7. Drugs to be tested can be administered either systemically by the intraperitoneal route or locally by the intranasal route. The intranasal route mimics the inhalation exposure used in humans, which is the preferred and well accepted administration for inflamed airway treatment, in particular asthma. Thus, unless otherwise stated, drugs were administered intranasally in this study. Due to limited solubility of chalcone 4 (9 ± 1 μM) and CN-chalcone 4 (16 ± 2 μM) in saline buffer, drugs were dissolved in physiological solutions complemented with HP-βCD (10%, w/w). Under such conditions, chalcone 4 and CN-chalcone 4 could be dissolved at maximal concentrations reaching 690 ± 44 and 493 ± 36 μM, respectively.

[4] = with 10% HP-βCD, read-out: Stability half-life (t1/2), lung homogenate, 10% β-cyclodextrine (converted)

Row | percentage of starting molecule recovered, lung homogenate, 10% β-cyclodextrine ([1]; at 16 h) | Compound | half-life at 20 μM ([1]; 10% HP-βCD, read-out: half-life in lung homogenate in the presence of HP-βCD) | half-life at 20 μM [1, 4] | half-life at 20 μM ([1]; read-out: Stability half-life (t1/2), lung homogenate (converted)) | half-life at 20 μM ([1]; read-out: t½ in lung homogenate) | solubility [2] | maximal concentration dissolved with HP-βCD [2] | effect on eosinophil / inflammatory cell recruitment in BALF after OVA challenge, intranasal [3] | inhibition of eosinophil counts in BALF [3] | effect on inflammatory cell counts in BALF after OVA challenge, intraperitoneal in HP-βCD [3] | effect on airway inflammation (BALF cell recruitment) after OVA challenge, intraperitoneal in carboxymethylcellulose [3]
1 |  | COc1cc(/C=C(\C#N)C(=O)c2ccc(Cl)cc2)ccc1O [CN-chalcone 4, (E)-2-(4-chlorobenzoyl)-3-(4-hydroxy-3-methoxyphenyl)acrylonitrile] | 40 min | 36 min | 24 min | 25 min | 16 ± 2 µM (≈ 5.02 µg/mL) | 493 ± 36 µM | as potent as chalcone 4 | up to 50% | did not affect any inflammatory cell counts | inactive
2 | 66% | COc1cc(/C=C/C(=O)c2ccc(Cl)cc2)ccc1O [chalcone 4] |  | > 960 min |  |  | 9 ± 1 µM (≈ 2.6 µg/mL) | 690 ± 44 µM | Significant reduction of eosinophil recruitment | up to 50% | significantly reducing eosinophils, neutrophils, and T cell counts in BALF | dose-dependent anti-inflammatory activity
